Values after ≈ are worked out from the molar mass of the structure shown.
Assays:
[1] = tested on: DC2.4 cells (B3Z activation); assay: Cross-presentation of whole OVA by DC2.4 to B3Z; type: cell-based, murine; conditions: co-treatment 6 h, 0.5 mg/mL OVA; p<0.001 all doses
Description: DC2.4 cells (5×10^5 cells/ml) were seeded at 100 μL/well in 96 well plates and cultured overnight. The cells were washed with DPBS, and co-exposed to 0.5 mg/mL soluble whole OVA, along with increasing concentrations of BzFβ for 6 h, The cells were then co-cultured with equal number of B3Z cells at 37° C. for 19 h.

[2] = tested on: CD45+/MHC II/CD11c+ splenocytes; assay: In vivo SIINFEKL loading, flow cytometry of splenocytes; set-up: species or system C57BL/6NCrl mice; conditions: CD45+/MHC II/CD11c+ population
Description: Since the oral route of drug delivery is preferred, various doses of BzFβ (1, 2, 4 mg) were administered by oral gavage, immediately following an iv injection of 50 μg SIINFEKL peptide. One-hour post-treatment the blood and spleens from each mouse was collected. Blood samples were processed as described above. Spleens were collected in 4 mL of Hanks Balanced Salt Solution (HBSS) and converted to a single cell suspension using sterile pouches and a Steward Stomacher 80 Biomaster Blender (Fisher Scientific, cat. no. 14-285-27). The resulting cell suspension was pelleted and suspended in 4 mL freshly prepared red blood cell lysis buffer (150 mM NH4Cl, 10 mM NaHCO3, 0.1 mM EDTA in sterile distilled H2O) for 1-3 minutes. The splenocytes were pelleted and filtered through […] EASY strainer filters (USA Scientific, cat. no. 5654-2070). The cell count was determined using the MUSE cell viability kit (MCH600103) and MUSE Cell Analyzer (Luminex Corp, Austin TX).
For peptide loading, splenocytes were prepared to 5×10^5/mL in cRPMI, then 100 μL of cells was added to wells of clear round-bottom 96 well tissue culture plates. […] Cells were gated based on live single-cell populations and positives were assessed using isotype controls and fluor-minus-one analysis when needed. Data were analyzed using the Attune NxT software or FlowJo versions 10.7 and 10.8.

[3] = Solubility in alkaline water; type: physicochemical; conditions: pH 10, aqueous buffer, read-out: limit to the solubility in alkaline water (converted)
Description: Mice were gavaged with BzFβ at doses ranging from 25 mg/kg body to 100 mg/kg body weight, injected intravenously (iv) with 50 μg BzFβ or injected intramuscularly with BzFβ at 25 to 40 mg/kg body weight. For two weeks post-treatment, water intake and weight were monitored. […] The limit to the solubility of BzFβ in alkaline water is 4 mg, therefore no further doses were tested.

[4] = target: T1, MHC class I/SIINFEKL complex on IMG cells (Mus musculus, UniProt P01901); assay: SIINFEKL binding to IMG cells, flow cytometry with 25-D1.16 antibody; type: cell-based, murine; conditions: 25 μg/mL BzFβ 0-4 h
T1 construct: host or cells: IMG cell line
Description: (§1) By using an MHC class I H-2K^b specific antibody, a relative comparison of the surface MHC class I was measured before and after BzFβ treatment of DC2.4 and IMG cells. These cells were treated with 25 μg/mL BzFβ for 0-4 h. Cells were centrifuged and washed using cold FACS buffer (DPBS with 5% FBS, 2 mM EDTA, 0.1% sodium azide). Cells were blocked with Fc block (bioLegend™; cat. no. 101320) for 10 min to 15 min to inhibit non-specific binding, followed by staining with fluorophore-conjugated antibodies; one set of cells was stained with the PE-labeled MHC/SIINFEKL specific antibody (clone 25-D1.16, Invitrogen™, Thermo Fisher Scientific Inc., Waltham, MA; cat. no. 12-5743-82), and the other set was stained with the PE-labeled MHC class I H-2Kb specific antibody (AF6-88.5.5.3,Invitrogen™, Thermo Fisher Scientific Inc., Waltham, MA; cat. no. 12-5958-82) […], for 30 min at 4° C. After washing, the cells were subjected to flow cytometric analysis with the Attune NxT Flow Cytometer (Invitrogen). Cells were gated based on live single-cell populations and positives were assessed using isotype controls and fluor-minus-one analysis when needed. Data were analyzed using the Attune NxT software or FlowJo versions 10.7 and 10.8.

[5] = tested on: MHC class I H-2Kb on IMG cells; assay: Surface MHC class I H-2Kb on IMG cells (AF6-88.5.5.3 flow cytometry); type: cell-based, murine; conditions: 25 μg/mL
Description: as §1, with “These cells were treated with 25 μg/mL BzFβ for 0-4 h.” left out

T1 sequence (P01901 22-369): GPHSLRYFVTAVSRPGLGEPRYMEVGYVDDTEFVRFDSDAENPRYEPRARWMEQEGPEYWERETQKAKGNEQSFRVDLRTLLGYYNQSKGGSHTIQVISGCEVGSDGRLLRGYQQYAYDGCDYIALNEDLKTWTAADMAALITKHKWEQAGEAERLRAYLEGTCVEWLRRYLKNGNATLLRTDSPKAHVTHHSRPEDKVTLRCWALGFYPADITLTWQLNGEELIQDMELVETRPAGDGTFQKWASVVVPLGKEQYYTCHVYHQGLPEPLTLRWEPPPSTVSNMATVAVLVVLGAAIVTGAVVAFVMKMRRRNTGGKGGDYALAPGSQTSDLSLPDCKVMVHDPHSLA
T1 sequence (P01887 21-119 partner): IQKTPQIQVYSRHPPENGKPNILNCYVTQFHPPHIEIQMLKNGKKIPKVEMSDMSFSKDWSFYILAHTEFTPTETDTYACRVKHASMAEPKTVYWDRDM

O=C(O)/C=C/c1ccc2occc2c1 [BzFβ, (2E)-3-(1-benzofuran-5-yl)prop-2-enoic acid]
B3Z response, cross-presentation of OVA [1]: significantly enhance the B3Z response | cells co-expressing MHCI bound SIINFEKL [2]: significantly more of these cells | solubility [3]: 20 mg/mL (≈ 106 mM) | binding of SIINFEKL to surface MHC class I [4]: able to enhance the binding of SIINFEKL | overall surface expression (MFI) of MHC class I ([5]; 1-4 h): no significant effect | overall surface expression (MFI) of MHC class I ([5]; 24 h): significant increase
